Measurements from US9938335B2, “Glucagon and GLP-1 co-agonist compounds” (Eli Lilly and Company, priority 2015, dated 2018).
Marks after values point to notes of the source that are not given here.

Legend:
[1] = tested on: STZ-treated DIO mice (C57BL/6); experiment: OGTT in Streptozotocin (STZ)-treated DIO mice; type: in vivo, mouse; conditions: for Glucose AUC (% of vehicle): male STZ mice, OGTT (2 g/kg) 16 hours post injection
Protocol: STZ-treated mouse model is a model of early diabetes. Five to six months old male DIO mice (C57BL/6) from Taconic Biosciences are used in this study. Animals are individually housed in a temperature-controlled (24° C.) facility with a 12 hour light/dark cycle (lights on 6:00), and free access to food and water. After two weeks acclimation to the facility, mice are injected intraperitoneally with 50 mg/kg of STZ on Tuesday and Friday. Two weeks post the injection, animals with glucose levels between 180-300 mg/dL at 09:00 are selected for the OGTT study. The day before the study, animals are randomized into groups based on body weight and their glucose levels. Animals are treated with vehicle or testing articles by subcutaneous injection just prior to food removal overnight (16:00). The following morning at 08:00, 16 hours post compound injection, blood samples are taken to measure time zero glucose. Animals are given an oral dose of glucose of 2 g/kg. Glucose is measured 15, 30, 60, and 120 minutes post the oral glucose challenge. Statistics are analyzed using ANOVA with Dunnett's comparison by JMP 6. Significance is denoted at p≤0.05 vs. vehicle.

DIO mice (C57BL/6) = experiment: Oral Glucose Tolerance Test (OGTT) in DIO mice; type: in vivo, mouse; conditions: for Glucose AUC (% of vehicle): male DIO mice, OGTT (2 g/kg) 16 hours post injection
Protocol: Diet-induced obese (DIO) mouse model is a model of insulin resistance. Five to six months old male DIO mice (C57BL/6) from Taconic Biosciences are used in this study. Animals are individually housed in a temperature-controlled (24° C.) facility with a 12 hour light/dark cycle (lights on 06:00), and free access to food and water. The acclimation period to the facility is two weeks. The day before the study, animals are randomized into groups based on their body weight. That same afternoon, animals are fasted in clean cages and dosed with vehicle (40 mM Tris-HCl, pH 8.0) or test articles by subcutaneous injection. The following morning, 16 hours post the peptide injection, fasting body weights are obtained to calculate glucose doses. Blood samples are taken to measure time zero glucose. Animals are then given an oral gavage of glucose (2 g/kg). Two glucose readings via glucometers were obtained at 15, 30, 60 and 120 minutes post oral glucose. The average of two glucose readings is reported at each time point and an area under the curve is calculated. Statistics were analyzed using ANOVA with Dunnett's comparison by JMP 6; significance is denoted at p≤0.05 vs. vehicle.

CC(C)C[C@H](NC(=O)[C@H](CC(C)C)NC(=O)[C@H](Cc1c[nH]c2ccccc12)NC(=O)[C@H](CCC(=O)O)NC(=O)[C@@H](NC(=O)[C@H](Cc1ccccc1)NC(=O)[C@H](CCC(=O)O)NC(=O)[C@H](CCCCNC(=O)COCCOCCNC(=O)COCCOCCNC(=O)CC[C@H](NC(=O)CCCCCCCCCCCCCCCCCCC(=O)O)C(=O)O)NC(=O)[C@H](C)NC(=O)[C@H](CCCCN)NC(=O)[C@H](CCCCN)NC(=O)[C@H](CCC(=O)O)NC(=O)[C@H](CC(=O)O)NC(=O)[C@H](CC(C)C)NC(=O)[C@H](Cc1ccc(O)cc1)NC(=O)[C@H](CCCCN)NC(=O)[C@H](CO)NC(=O)[C@H](Cc1ccc(O)cc1)NC(=O)[C@H](CC(=O)O)NC(=O)[C@H](CO)NC(=O)[C@@H](NC(=O)[C@H](Cc1ccccc1)NC(=O)[C@@H](NC(=O)CNC(=O)[C@H](CCC(N)=O)NC(=O)C(C)(C)NC(=O)[C@@H](N)Cc1c[nH]cn1)[C@@H](C)O)[C@@H](C)O)C(C)C)C(=O)N[C@@H](CCC(=O)O)C(=O)NCC(=O)NCC(=O)N1CCC[C@H]1C(=O)N[C@@H](CO)C(=O)N[C@@H](CO)C(=O)NCC(N)=O [Compound 2]
Glucose AUC (% of vehicle) ([1]; 1 nmol/kg sc): 70* % of vehicle | Glucose AUC (% of vehicle) ([1]; 3 nmol/kg sc): 48* % of vehicle | Glucose AUC (% of vehicle) ([1]; 10 nmol/kg sc): 35* % of vehicle | glucose excursion during the tolerance test ([1]; male STZ mice, 1, 3 and 10 nmol/kg): dose dependent decrease in glucose excursion | Glucose AUC (% of vehicle) (DIO mice (C57BL/6); 1 nmol/kg sc): 76* % of vehicle | Glucose AUC (% of vehicle) (DIO mice (C57BL/6); 3 nmol/kg sc): 50* % of vehicle | Glucose AUC (% of vehicle) (DIO mice (C57BL/6); 10 nmol/kg sc): 39* % of vehicle | glucose during the tolerance test (DIO mice (C57BL/6); male DIO mice, 1, 3 and 10 nmol/kg): dose-dependent decrease in glucose
